Measured values published in patent publication US9662390B2, “Use of opioid antagonists to attenuate endothelial cell proliferation and migration” (THE UNIVERSITY OF CHICAGO, priority 2005, dated 2017).
“Also recorded” adds a separate entry of the source.

What was measured:
[1] = test system: human pulmonary microvascular endothelial cells (HPMVEC); assay: Human pulmonary microvascular EC migration assay (Transwell); format: cell-based; settings: for agonist-induced HPMVEC migration: agonist 100 nM, 18 hours
[2] = test system: human pulmonary microvascular endothelial cells (HPMVEC); assay: Human pulmonary microvascular EC proliferation assay (CellTiter96 MTS); format: cell-based; settings: for agonist-induced HPMVEC proliferation: agonist 100 nM, 24 h, serum-free media
[3] = test system: RhoA; assay: RhoA activation assay (RBD beads, anti-RhoA immunoblot); format: cell-based, human; settings: for agonist-stimulated RhoA activation: endothelial cells
Excerpt: The supernatant is removed and the RBD-beads with the GTP-bound form of RhoA bound are washed extensively.

[4] = biological target: mu opioid receptor (Homo sapiens, UniProt P35372); assay: Serine/threonine phosphorylation of the mu opioid receptor in EC (Example 9); format: cell-based
Chain of mu opioid receptor (P35372 whole entry): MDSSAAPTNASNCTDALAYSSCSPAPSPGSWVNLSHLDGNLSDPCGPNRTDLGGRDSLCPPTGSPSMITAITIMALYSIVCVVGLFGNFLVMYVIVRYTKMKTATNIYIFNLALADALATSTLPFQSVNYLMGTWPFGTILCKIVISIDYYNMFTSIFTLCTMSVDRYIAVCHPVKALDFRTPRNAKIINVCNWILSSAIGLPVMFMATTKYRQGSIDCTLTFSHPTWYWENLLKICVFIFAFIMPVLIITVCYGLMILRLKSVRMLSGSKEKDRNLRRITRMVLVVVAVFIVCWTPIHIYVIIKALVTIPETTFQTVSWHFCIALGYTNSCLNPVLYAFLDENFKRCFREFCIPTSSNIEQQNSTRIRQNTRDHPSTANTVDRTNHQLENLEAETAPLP

[5] = test system: VEGF receptor 1 (Flt-1); assay: Tyrosine phosphorylation of VEGF receptor 1, immunoprecipitation and immunoblot; format: cell-based, human; settings: HPMVEC
[6] = test system: VEGF receptor 2 (Flk-1); assay: Tyrosine phosphorylation of VEGF receptor 2, immunoprecipitation and immunoblot; format: cell-based, human; settings: HPMVEC
[7] = test system: VEGF receptor; assay: Tyrosine phosphorylation of the VEGF receptor in EC (Example 9); format: cell-based, human
[8] = test system: PDGF receptor; assay: Tyrosine phosphorylation of the PDGF receptor in EC (Example 9); format: cell-based, human
[9] = test system: S1P3 receptor; assay: Tyrosine phosphorylation of the S1P3 receptor in EC (Example 9); format: cell-based, human
[10] = test system: morphine induced angiogenesis; settings: xenograft tumor model in mice; cited from earlier work
[11] = test system: F11 c-1; settings: T241 fibrosarcoma; no increase in morphine treated KO mice; cited from earlier work
[12] = sickle cell disease; cited from earlier work
[13] = test system: tumors; assay: Tumor-bearing mice: tumor growth and angiogenesis; format: in vivo; settings: eight weeks; for angiogenesis and tumor growth, combination of opioid, opioid antagonist and anticancer agent compared to the other groups: antagonist 5 mg/kg/day, morphine 0.5 mg/kg/day, bevacizumab (Avastin) 5 mg/kg every 14 days; for tumor growth and angiogenesis compared to controls or opioid alone: antagonist orally 5 mg/kg/day with morphine orally 0.5 mg/kg/day
[14] = test system: tumor; assay: Human cancer patients: tumor growth and angiogenesis; format: in vivo; settings: antagonist orally 5 mg/kg/day, eight weeks, with opioid and bevacizumab (Avastin)
[15] = in vivo; cited from earlier work
[16] = white crystalline powder, typically the bromide salt; cited from earlier work
[17] = MNTX 100 nM (0.1 μM, 1 hour pretreatment), induced by MS/morphine, DAMGO, VEGF, in Example 9 also S1P and PDGF

Compound: CCCCCCCCCCCCC/C=C/[C@@H](O)[C@@H](N)COP(=O)(O)O [SIP, sphingosine 1-phosphate]
- agonist-induced HPMVEC migration [1]: induced
- agonist-induced HPMVEC proliferation [2]: induced proliferation
- agonist-stimulated RhoA activation [3]: activation of the cytoskeletal regulatory small G-protein, RhoA
- agonist-induced serine/threonine phosphorylation of the mu opioid receptor [4]: induced serine/threonine phosphorylation

Compound: C[C@@H](NC(=O)[C@@H](N)Cc1ccc(O)cc1)C(=O)NCC(=O)N(C)[C@@H](Cc1ccccc1)C(=O)NCCO [DAMGO, [D-Ala^2, N-MePhe^4, Gly^5-ol] enkephalin]
- agonist-induced HPMVEC migration [1]: induce HPMVEC migration; also recorded: induced
- agonist-induced HPMVEC proliferation [2]: stimulate HPMVEC proliferation; also recorded: induced proliferation
- agonist-induced tyrosine phosphorylation of VEGF receptor 1 (Flt-1) [5]: induce tyrosine phosphorylation
- agonist-induced tyrosine phosphorylation of VEGF receptor 2 (Flk-1) [6]: induce tyrosine phosphorylation
- agonist-stimulated RhoA activation [3]: stimulate RhoA activation
- agonist-induced tyrosine phosphorylation of the VEGF receptor [7]: induced tyrosine phosphorylation
- agonist-induced tyrosine phosphorylation of the PDGF receptor [8]: induced tyrosine phosphorylation
- agonist-induced tyrosine phosphorylation of the S1P3 receptor [9]: induced tyrosine phosphorylation

Compound: C=CCN1CC[C@]23c4c5ccc(O)c4O[C@H]2C(=O)CC[C@@]3(O)[C@H]1C5 [naloxone]
- effect on morphine induced angiogenesis [10]: did not exhibit a significant effect

Compound: platelet-derived growth factor [PDGF]
- agonist-induced HPMVEC migration [1]: induced
- agonist-induced HPMVEC proliferation [2]: induced proliferation
- agonist-stimulated RhoA activation [3]: activation of the cytoskeletal regulatory small G-protein, RhoA
- agonist-induced serine/threonine phosphorylation of the mu opioid receptor [4]: induced serine/threonine phosphorylation

Compound: vascular endothelial growth factor [VEGF]
- agonist-induced HPMVEC migration [1]: induce HPMVEC migration; also recorded: induced
- agonist-induced HPMVEC proliferation [2]: stimulate HPMVEC proliferation; also recorded: induced proliferation
- agonist-induced tyrosine phosphorylation of VEGF receptor 1 (Flt-1) [5]: induced
- agonist-induced tyrosine phosphorylation of VEGF receptor 2 (Flk-1) [6]: induced
- agonist-stimulated RhoA activation [3]: stimulate RhoA activation; also recorded: activation of the cytoskeletal regulatory small G-protein, RhoA
- agonist-induced serine/threonine phosphorylation of the mu opioid receptor [4]: induced serine/threonine phosphorylation

Compound: CN1CC[C@]23c4c5ccc(O)c4O[C@H]2[C@@H](O)C=C[C@H]3[C@H]1C5 [morphine]
- agonist-induced HPMVEC migration [1]: induced
- agonist-induced HPMVEC migration ([1]; listed as MS): induce HPMVEC migration
- agonist-induced HPMVEC proliferation [2]: induced proliferation
- agonist-induced HPMVEC proliferation ([2]; listed as MS): stimulate HPMVEC proliferation
- agonist-induced tyrosine phosphorylation of VEGF receptor 1 (Flt-1) [5]: induce tyrosine phosphorylation
- agonist-induced tyrosine phosphorylation of VEGF receptor 2 (Flk-1) [6]: induce tyrosine phosphorylation
- agonist-stimulated RhoA activation [3]: stimulate RhoA activation
- agonist-stimulated RhoA activation ([3]; listed as MS): stimulate RhoA activation
- agonist-induced tyrosine phosphorylation of the VEGF receptor [7]: induced tyrosine phosphorylation
- agonist-induced tyrosine phosphorylation of the PDGF receptor [8]: induced tyrosine phosphorylation
- agonist-induced tyrosine phosphorylation of the S1P3 receptor [9]: induced tyrosine phosphorylation
- increase in F11 c-1 expression in morphine treated mice versus controls [11]: 10 fold
- proliferative retinopathy [12]: induced proliferative retinopathy

Compound: C[N+]1(CC2CC2)CCC23c4c5ccc(O)c4OC2C(=O)CCC3(O)C1C5 (stereo not shown) [MNTX, N-methylnaltrexone]
- inhibition of agonist-induced HPMVEC migration [1, 17]: inhibited
- inhibition of agonist-induced HPMVEC proliferation [2, 17]: attenuated; also recorded: inhibited
- effect on MS and DAMGO induced tyrosine phosphorylation of VEGF receptor 1 [5]: blocked
- effect on VEGF induced tyrosine phosphorylation of VEGF receptor 1 [5]: attenuates
- effect on MS and DAMGO induced tyrosine phosphorylation of VEGF receptor 2 [6]: blocked
- effect on VEGF induced tyrosine phosphorylation of VEGF receptor 2 [6]: attenuates
- effect on agonist-stimulated RhoA activation ([3]; induced by morphine/MS, DAMGO, VEGF, in Example 9 also S1P and PDGF): inhibited; also recorded: attenuated
- effect of MNTX pretreatment on agonist-induced VEGF receptor phosphorylation [7]: attenuated
- effect of MNTX pretreatment on agonist-induced PDGF receptor phosphorylation [8]: attenuated
- effect of MNTX pretreatment on agonist-induced S1P3 receptor phosphorylation [9]: attenuated
- effect of MNTX pretreatment on agonist-induced mu opioid receptor phosphorylation [4]: attenuated
- angiogenesis and tumor growth, combination of opioid, opioid antagonist and anticancer agent compared to the other groups [13]: enhanced result
- tumor growth and angiogenesis compared to controls or opioid alone [13]: reduction in tumor growth and angiogenesis
- angiogenesis and tumor growth, combination of opioid, opioid antagonist and anticancer agent compared to the other groups [14]: enhanced result
- tolerability of doses that maintain plasma MNTX between about 25 and 150 ng/mL [15]: well tolerated
- solubility in water [16]: freely soluble in water

Compound: C[C@H]1CN(C[C@H](Cc2ccccc2)C(=O)NCC(=O)O)CC[C@@]1(C)c1cccc(O)c1 [alvimopan]
- angiogenesis and tumor growth, combination of opioid, opioid antagonist and anticancer agent compared to the other groups [13]: enhanced result
- tumor growth and angiogenesis compared to controls or opioid alone [13]: reduction in tumor growth and angiogenesis
- angiogenesis and tumor growth, combination of opioid, opioid antagonist and anticancer agent compared to the other groups [14]: enhanced result
